In patent publication EP0908457B1, “3-(1,2-benzisothiazol- and isoxazol-5-Y1)-2,4(1H,3H)-pyrimidinedione or thione and 3-(1,2-benzisothiazol- and isoxazol-5-y1)-4(3H)-pyrimidinone or thione herbicidal agents” (BASF AKTIENGESELLSCHAFT, priority 1997, dated 1999):

How the values were obtained:
[1] = system: Echinochloa oryzoides (Ard.) Fritsch.; assay: Preemergence weed control under flooded paddy conditions, ECHORC (Watergrass (Calif.)); assay type: in vivo; details: flooded paddy, rated three to four weeks after treatment; for herbicidal effect rating, ECHORC: preemergence weeds; for ECHORC herbicidal rating: preemergence; as to herbicidal effect rating, ECHORC: meaning of each grade not given here
Cyperus iria = assay: Preemergence weed control under flooded paddy conditions, CYPIR (Rice Flatsedge); assay type: in vivo; details: flooded paddy, rated three to four weeks after treatment; for herbicidal effect rating, CYPIR: preemergence weeds; for CYPIR herbicidal rating: preemergence; as to herbicidal effect rating, CYPIR: meaning of each grade not given here
[2] = system: Cyperus serotinus, Rottb.; assay: Preemergence weed control under flooded paddy conditions, CYPSE (Flatsedge); assay type: in vivo; details: preemergence weeds, rated three to four weeks after treatment; also: meaning of each grade not given here
Sagittaria pygmaea, L. = assay: Preemergence weed control under flooded paddy conditions, SAGPY (Arrowhead (Pygmaea)); assay type: in vivo; details: flooded paddy, rated three to four weeks after treatment; for herbicidal effect rating, SAGPY: preemergence weeds; for SAGPY herbicidal rating: preemergence; as to herbicidal effect rating, SAGPY: meaning of each grade not given here
[3] = system: Oryza sativa, (L.) Tebonnet; assay: Rice tolerance to post-transplant applications under flooded paddy conditions (Example 187), ORYSAT (Rice, Tebonnet); details: rated three to four weeks after treatment
[4] = system: Monochoria vaginalis, Presl.; assay: Preemergence weed control under flooded paddy conditions, MOOVA (Monochoria); assay type: in vivo; details: preemergence, flooded paddy, rated three to four weeks after treatment

SMILES	herbicidal effect rating, ECHORC ([1]; Rate 0.0320 kg/ha)	herbicidal effect rating, ECHORC ([1]; Rate 0.0620 kg/ha)	herbicidal effect rating, ECHORC ([1]; Rate 0.1250 kg/ha)	herbicidal effect rating, ECHORC ([1]; Rate 0.2500 kg/ha)	herbicidal effect rating, CYPIR (Cyperus iria; Rate 0.0320 kg/ha)	herbicidal effect rating, CYPIR (Cyperus iria; Rate 0.0620 kg/ha)	herbicidal effect rating, CYPIR (Cyperus iria; Rate 0.1250 kg/ha)	herbicidal effect rating, CYPIR (Cyperus iria; Rate 0.2500 kg/ha)	herbicidal effect rating, CYPSE ([2]; Rate 0.0320 kg/ha)	herbicidal effect rating, CYPSE ([2]; Rate 0.0620 kg/ha)	herbicidal effect rating, CYPSE ([2]; Rate 0.1250 kg/ha)	herbicidal effect rating, CYPSE ([2]; Rate 0.2500 kg/ha)	herbicidal effect rating, SAGPY (Sagittaria pygmaea, L.; Rate 0.0320 kg/ha)	herbicidal effect rating, SAGPY (Sagittaria pygmaea, L.; Rate 0.0620 kg/ha)	herbicidal effect rating, SAGPY (Sagittaria pygmaea, L.; Rate 0.1250 kg/ha)	herbicidal effect rating, SAGPY (Sagittaria pygmaea, L.; Rate 0.2500 kg/ha)	herbicidal effect rating ORYSAT ([3]; Rate 0.0320 kg/ha)	herbicidal effect rating ORYSAT ([3]; Rate 0.0620 kg/ha)	herbicidal effect rating ORYSAT ([3]; Rate 0.1250 kg/ha)	herbicidal effect rating ORYSAT ([3]; Rate 0.2500 kg/ha)	also measured
Cn1c(C(F)(F)F)cc(=O)n(-c2ccc3snc(C(=O)CCl)c3c2)c1=O [Example 338, 2,4(1H,3H)-Pyrimidinedione, 3-[3-(chloroacetyl)-1,2-benzisothiazol-5-yl]-1-methyl-6-(trifluoromethyl)-]	2.0	2.0	4.0	9.0	3.0	3.0	3.0	8.0	0.0	0.0	0.0	5.0	0.0	2.0	2.0	5.0	0.0	0.0	3.0	6.0	–
CC(Br)c1nsc2ccc(-n3c(=O)cc(C(F)(F)F)n(C)c3=O)cc12 (centres unmarked) [Example 339, 2,4(1H,3H)-Pyrimidinedione, 3-[3-(1-bromoethyl)-1,2-benzisothiazol-5-yl]-1-methyl-6-(trifluoromethyl)-]	0.0	0.0	4.0	6.0	4.0	4.0	7.0	7.0	0.0	0.0	6.0	9.0	5.0	5.0	5.0	9.0	5.0	7.0	9.0	9.0	–
Cn1c(C(F)(F)F)cc(=O)n(-c2ccc3snc(C(C)(Br)Br)c3c2)c1=O [Example 340, 2,4(1H,3H)-Pyrimidinedione, 3-[3-(1,1-dibromoethyl)-1,2-benzisothiazol-5-yl]-1-methyl-6-(trifluoromethyl)-]	5.0	6.0	9.0	9.0	2.0	5.0	7.0	9.0	3.0	3.0	6.0	7.0	4.0	4.0	5.0	7.0	5.0	6.0	7.0	9.0	–
Cn1c(C(F)(F)F)cc(=O)n(-c2cc3c(C(=O)NS(=O)(=O)Cc4ccccc4)nsc3cc2F)c1=O [Example 482, 1,2-Benzisothiazole-3-carboxamide, N-(benzylsulfonyl)-5-[3,6-dihydro-3-methyl-2,6-dioxo-4-(trifluoromethyl)-1(2H)-pyrimidinyl]-6-fluoro-]	–	–	–	–	–	–	–	–	–	–	–	–	–	–	–	–	–	–	–	–	ECHORC herbicidal rating ([1]; 0.0320 kg/ha): 4.0; ECHORC herbicidal rating ([1]; 0.0620 kg/ha): 7.0; ECHORC herbicidal rating ([1]; 0.1250 kg/ha): 9.0; ECHORC herbicidal rating ([1]; 0.2500 kg/ha): 9.0; CYPIR herbicidal rating (Cyperus iria; 0.0320 kg/ha): 0.0; CYPIR herbicidal rating (Cyperus iria; 0.0620 kg/ha): 0.0; CYPIR herbicidal rating (Cyperus iria; 0.1250 kg/ha): 0.0; CYPIR herbicidal rating (Cyperus iria; 0.2500 kg/ha): 6.0; MOOVA herbicidal rating ([4]; 0.0320 kg/ha): 4.0; MOOVA herbicidal rating ([4]; 0.0620 kg/ha): 5.0; MOOVA herbicidal rating ([4]; 0.1250 kg/ha): 6.0; MOOVA herbicidal rating ([4]; 0.2500 kg/ha): 7.0; SAGPY herbicidal rating (Sagittaria pygmaea, L.; 0.0320 kg/ha): 3.0; SAGPY herbicidal rating (Sagittaria pygmaea, L.; 0.0620 kg/ha): 4.0; SAGPY herbicidal rating (Sagittaria pygmaea, L.; 0.1250 kg/ha): 5.0; SAGPY herbicidal rating (Sagittaria pygmaea, L.; 0.2500 kg/ha): 7.0; ORYSAT herbicidal rating (rice tolerance) ([3]; 0.0320 kg/ha): 0.0; ORYSAT herbicidal rating (rice tolerance) ([3]; 0.0620 kg/ha): 2.0; ORYSAT herbicidal rating (rice tolerance) ([3]; 0.1250 kg/ha): 6.0; ORYSAT herbicidal rating (rice tolerance) ([3]; 0.2500 kg/ha): 7.0
